Assay results from ChEMBL document CHEMBL4610053, “Synthesis and biological evaluation of 2-quinolineacrylamides” (Bioorg Med Chem, 2020).
Blank lines part the entries; values can stand above or below the compound they belong to.

Key:
HCT-116 = assay: Antiproliferative activity against human HCT116 cells assessed as reduction in cell viability incubated for 48 hrs by Sulforhodamine B assay; type: functional; conditions: HCT-116, 48 h
A549 = assay: Antiproliferative activity against human A549 cells assessed as reduction in cell viability incubated for 48 hrs by Sulforhodamine B assay; type: functional; conditions: A549, 48 h
Homo sapiens [1] = species: Homo sapiens; assay: Selectivity ratio of IC50 for recombinant human C-terminal FLAG/His-tagged HDAC1 (1 to 482 residues) expressed in Sf21 insect cells to IC50 of human HDAC6
Homo sapiens [2] = species: Homo sapiens; assay: Selectivity ratio of IC50 for recombinant human C-terminal His-tagged HDAC8 (1 to 377 residues) expressed in insect cells to IC50 of human HDAC6
Histone deacetylase 1 = Histone deacetylase 1 (Homo sapiens, UniProt Q13547); assay: Inhibition of recombinant human C-terminal FLAG/His-tagged HDAC1 (1 to 482 residues) expressed in Sf21 insect cells by using RHK-K(Ac)-AMC as substrate measured after 60 mins by fluorescence assay
Histone deacetylase 1, sequence (Q13547 whole entry, the tested form may be a part): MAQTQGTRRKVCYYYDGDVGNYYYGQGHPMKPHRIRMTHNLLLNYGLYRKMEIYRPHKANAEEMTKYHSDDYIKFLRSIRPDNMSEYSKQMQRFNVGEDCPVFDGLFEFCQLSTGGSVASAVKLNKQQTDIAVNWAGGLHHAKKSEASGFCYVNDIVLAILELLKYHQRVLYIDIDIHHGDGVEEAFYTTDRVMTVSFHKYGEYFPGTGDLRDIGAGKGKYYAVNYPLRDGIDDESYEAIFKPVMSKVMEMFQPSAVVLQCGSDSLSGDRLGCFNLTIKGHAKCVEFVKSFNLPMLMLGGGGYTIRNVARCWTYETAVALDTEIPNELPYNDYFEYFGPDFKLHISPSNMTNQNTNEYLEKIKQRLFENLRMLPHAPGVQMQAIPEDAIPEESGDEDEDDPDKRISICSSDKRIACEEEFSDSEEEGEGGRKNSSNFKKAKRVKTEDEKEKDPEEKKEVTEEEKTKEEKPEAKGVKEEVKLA

[3] = biological target: T1, Protein deacetylase HDAC6 (Homo sapiens, UniProt Q9UBN7); assay: Inhibition of human HDAC6 using fluorogenic-(RHKKAc) as substrate by fluorescence assay
T1 sequence (Q9UBN7 whole entry): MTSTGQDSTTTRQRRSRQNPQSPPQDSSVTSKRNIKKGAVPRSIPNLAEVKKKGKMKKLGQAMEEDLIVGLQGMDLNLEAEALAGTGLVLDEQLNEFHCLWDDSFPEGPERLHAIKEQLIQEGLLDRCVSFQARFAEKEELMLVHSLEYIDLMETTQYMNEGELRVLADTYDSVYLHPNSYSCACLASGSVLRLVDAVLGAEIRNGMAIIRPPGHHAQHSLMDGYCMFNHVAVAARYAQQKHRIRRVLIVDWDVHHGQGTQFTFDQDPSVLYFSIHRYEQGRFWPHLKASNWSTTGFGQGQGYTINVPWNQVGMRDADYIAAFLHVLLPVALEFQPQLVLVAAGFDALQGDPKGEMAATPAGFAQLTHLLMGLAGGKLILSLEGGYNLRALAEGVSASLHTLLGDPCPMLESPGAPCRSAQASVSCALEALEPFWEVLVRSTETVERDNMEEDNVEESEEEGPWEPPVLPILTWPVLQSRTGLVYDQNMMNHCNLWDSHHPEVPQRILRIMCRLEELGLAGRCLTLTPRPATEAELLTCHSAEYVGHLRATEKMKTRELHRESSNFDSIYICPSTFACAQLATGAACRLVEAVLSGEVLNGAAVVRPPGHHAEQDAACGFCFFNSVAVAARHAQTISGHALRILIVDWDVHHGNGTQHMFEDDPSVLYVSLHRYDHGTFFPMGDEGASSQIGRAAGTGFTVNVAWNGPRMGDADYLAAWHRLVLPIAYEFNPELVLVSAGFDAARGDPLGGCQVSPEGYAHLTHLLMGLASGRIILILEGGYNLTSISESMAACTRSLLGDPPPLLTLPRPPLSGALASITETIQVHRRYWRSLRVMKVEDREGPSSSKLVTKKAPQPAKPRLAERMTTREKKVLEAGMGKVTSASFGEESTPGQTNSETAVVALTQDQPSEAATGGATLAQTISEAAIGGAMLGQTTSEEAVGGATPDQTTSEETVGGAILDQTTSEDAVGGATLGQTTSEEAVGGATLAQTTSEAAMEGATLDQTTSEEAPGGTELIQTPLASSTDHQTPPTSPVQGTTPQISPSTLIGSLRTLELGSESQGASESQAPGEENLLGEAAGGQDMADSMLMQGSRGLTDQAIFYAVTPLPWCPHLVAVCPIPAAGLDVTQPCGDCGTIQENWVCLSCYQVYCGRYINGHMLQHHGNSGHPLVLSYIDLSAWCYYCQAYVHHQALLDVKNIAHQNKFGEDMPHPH

Histone deacetylase 2 = Histone deacetylase 2 (Homo sapiens, UniProt Q92769); assay: Inhibition of recombinant human C-terminal GST-tagged HDAC2 (1 to 488 residues) expressed in insect cells using RHK-K(Ac)-AMC as substrate measured after 60 mins by fluorescence assay
Histone deacetylase 2, sequence (Q92769 whole entry, the tested form may be a part): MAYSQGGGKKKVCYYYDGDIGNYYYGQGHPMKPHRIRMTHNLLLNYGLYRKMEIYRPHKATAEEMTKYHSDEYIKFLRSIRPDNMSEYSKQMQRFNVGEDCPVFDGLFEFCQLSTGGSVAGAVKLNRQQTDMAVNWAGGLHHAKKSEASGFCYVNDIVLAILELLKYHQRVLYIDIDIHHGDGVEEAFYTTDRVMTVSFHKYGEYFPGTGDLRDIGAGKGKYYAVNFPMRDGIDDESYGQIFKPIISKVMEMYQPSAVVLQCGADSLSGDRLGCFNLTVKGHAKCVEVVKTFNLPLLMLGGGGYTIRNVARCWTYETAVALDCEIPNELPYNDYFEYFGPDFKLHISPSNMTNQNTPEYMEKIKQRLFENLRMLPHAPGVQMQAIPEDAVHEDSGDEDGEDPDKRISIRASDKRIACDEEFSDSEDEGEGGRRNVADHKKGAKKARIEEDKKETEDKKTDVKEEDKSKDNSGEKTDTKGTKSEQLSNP

[4] = biological target: T2, Protein deacetylase HDAC6 (Homo sapiens) (UniProt Q9UBN7); assay: Inhibition of HDAC6 in human HCT116 cells assessed as increase in tubulin acetylation measured after 48 hrs by Western blot analysis; type: cell-based; conditions: HCT-116
T2 sequence (whole entry): T1 sequence (Q9UBN7 whole entry)

Histone deacetylase 8 = biological target: T3, Histone deacetylase 8 (Homo sapiens, UniProt Q9BY41); assay: Inhibition of recombinant human C-terminal His-tagged HDAC8 (1 to 377 residues) expressed in insect cells using RHK-K(Ac)-AMC as substrate measured after 60 mins by fluorescence assay
T3 sequence (Q9BY41 whole entry): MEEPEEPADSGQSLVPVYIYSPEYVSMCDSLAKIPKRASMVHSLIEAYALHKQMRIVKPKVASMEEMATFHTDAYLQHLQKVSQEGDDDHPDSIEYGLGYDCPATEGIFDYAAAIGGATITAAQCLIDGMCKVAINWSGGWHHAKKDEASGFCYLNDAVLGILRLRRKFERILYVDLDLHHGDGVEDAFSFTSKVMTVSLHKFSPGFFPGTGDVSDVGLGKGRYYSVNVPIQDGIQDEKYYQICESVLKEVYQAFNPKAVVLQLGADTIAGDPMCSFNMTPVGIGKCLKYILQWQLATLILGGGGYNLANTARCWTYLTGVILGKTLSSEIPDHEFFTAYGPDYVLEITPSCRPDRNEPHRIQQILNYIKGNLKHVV

Homo sapiens [5] = species: Homo sapiens; assay: Selectivity ratio of IC50 for recombinant human C-terminal GST-tagged HDAC2 (1 to 488 residues) expressed in insect cells to IC50 of human HDAC6
[6] = biological target: Class 1 histone deacetylase (Homo sapiens) (UniProt Q13547+O15379+Q92769+Q9BY41); assay: Inhibition of class 1 HDAC in human HCT116 cells assessed as increase in H3 acetylation measured after 48 hrs by Western blot analysis; type: cell-based; conditions: HCT-116

SMILES: COc1ccc(S(=O)(=O)Nc2ccc3nc(/C=C/C(=O)NO)ccc3c2)cc1
- GI50 (HCT-116): 6680 nM
- GI50 (A549): 4310 nM

SMILES: COc1cccc(Oc2ccc3nc(/C=C/C(=O)NO)ccc3c2)c1
- GI50 (HCT-116): 2740 nM
- GI50 (A549): 4350 nM

SMILES: Cc1ccc(C(=O)c2ccc3nc(/C=C/C(=O)NO)ccc3c2)cc1
- GI50 (HCT-116): 2510 nM
- GI50 (A549): 2580 nM

SMILES: COc1ccc(C(=O)c2ccc3nc(/C=C/C(=O)NO)ccc3c2)cc1
- GI50 (HCT-116): 2300 nM
- GI50 (A549): 1890 nM

SMILES: CN1CCc2c(c3ccccc3n2Cc2ccc(C(=O)NO)cc2)C1 [TUBASTATIN A]
- GI50 (HCT-116): > 5000 nM
- GI50 (A549): > 5000 nM

SMILES: COc1cc(C(=O)c2ccc3nc(/C=C/C(=O)NO)ccc3c2)cc(OC)c1OC
- GI50 (HCT-116): 2620 nM
- GI50 (A549): 3350 nM

SMILES: CC(C)c1ccc(Oc2ccc3nc(/C=C/C(=O)NO)ccc3c2)cc1
- GI50 (HCT-116): 4080 nM
- GI50 (A549): 3280 nM

These reach a lower GI50 (HCT-116). Values come first.

- GI50 (HCT-116): 1560 nM
- GI50 (A549): 1920 nM
SMILES: O=C(/C=C/c1ccc2cc(-c3ccoc3)ccc2n1)NO

- GI50 (HCT-116): 740 nM
- IC50 (Histone deacetylase 1; read-out: IC50): 1770 nM
- IC50 [3]: 26.5 nM
- IC50 (Histone deacetylase 2; read-out: IC50): 18.7 nM
- inhibition [4]: Dose-dependent effect
- GI50 (A549): 2430 nM
- IC50 (Histone deacetylase 8): 2820 nM
- inhibition [6]: Dose-dependent effect
SMILES: COc1cc(Oc2ccc3nc(/C=C/C(=O)NO)ccc3c2)cc(OC)c1OC
- Ratio IC50 (Homo sapiens [1]): 67
- Ratio IC50 (Homo sapiens [2]): 106
- Ratio IC50 (Homo sapiens [5]): 0.7

- GI50 (HCT-116): 1780 nM
- GI50 (A549): 3310 nM
SMILES: COc1ccc(C(=O)c2ccc3nc(/C=C/C(=O)NO)ccc3c2)cc1OC

- GI50 (HCT-116): 1840 nM
- GI50 (A549): 1260 nM
SMILES: O=C(/C=C/c1ccc2cc(C(=O)c3ccc(F)cc3)ccc2n1)NO

- GI50 (HCT-116): 1820 nM
- IC50 (Histone deacetylase 1; read-out: IC50): > 10000 nM
- IC50 [3]: 20.7 nM
- IC50 (Histone deacetylase 2): Not Active
- inhibition [4]: Dose-dependent effect
- GI50 (A549): 3200 nM
- IC50 (Histone deacetylase 8): 7750 nM
- inhibition [6]: Dose-dependent effect
SMILES: COc1ccc(Oc2ccc3nc(/C=C/C(=O)NO)ccc3c2)cc1
- Ratio IC50 (Homo sapiens [1]): > 483
- Ratio IC50 (Homo sapiens [2]): 374

- GI50 (HCT-116): 440 nM
- GI50 (A549): 2620 nM
SMILES: O=C(CCCCCCC(=O)Nc1ccccc1)NO [VORINOSTAT]

- GI50 (HCT-116): 1470 nM
- IC50 (Histone deacetylase 1; sf21): Not Active
- IC50 [3]: 49 nM
- IC50 (Histone deacetylase 2; read-out: IC50): 1310 nM
- inhibition [4]: Dose-dependent effect
- GI50 (A549): 2350 nM
- IC50 (Histone deacetylase 8): 4770 nM
- inhibition [6]: Dose-dependent effect
SMILES: COc1ccc(-c2ccc3nc(/C=C/C(=O)NO)ccc3c2)cc1
- Ratio IC50 (Homo sapiens [2]): 97
- Ratio IC50 (Homo sapiens [5]): 27

- GI50 (HCT-116): 1000 nM
- IC50 (Histone deacetylase 1; read-out: IC50): 6050 nM
- IC50 [3]: 51.4 nM
- IC50 (Histone deacetylase 2): Not Active
- inhibition [4]: Dose-dependent effect
- GI50 (A549): 1630 nM
- IC50 (Histone deacetylase 8): 2320 nM
- inhibition [6]: Dose-dependent effect
SMILES: O=C(/C=C/c1ccc2cc(Oc3ccc([N+](=O)[O-])cc3)ccc2n1)NO
- Ratio IC50 (Homo sapiens [1]): 118
- Ratio IC50 (Homo sapiens [2]): 45
